# Results from patent US20210254087A1, “METHODS FOR ENHANCING GENOME ENGINEERING EFFICIENCY” (KWS SAAT SE & CO. KGaA, priority 2018, published 2021).
# Key:
# Assay type in all cases: cell-based
# [1] = test system: corn Hi II type II calluses; assay: Co-delivery of TSA with gene editing constructs pGEP359 and pGEP353, site-specific InDel rate by NGS; settings: 15 ng TSA vs no TSA, 13 days after co-bombardment
# Experimental: Type II callus culture and microprojectile bombardment and post-bombardment handlings were performed using the same procedure as described in Example 2. 2-15 days after bombardment, the calluses were harvested and used for genomic DNA isolation with a Plant DNA Isolation kit from Qiagen. NGS (next generation sequencing) was conducted by Illumina Miseq platform. InDel (insertion and deletion) rate was analyzed by means of CRISPResso.
# [2] = test system: corn Hi II immature embryos; assay: Co-delivery of TSA with gene editing construct pGEP284, site-specific InDel rate by NGS
# Experimental: Embryo isolation, microprojectile bombardment and post-bombardment handlings were performed using the same procedure as described in Example 1. Two days after bombardment, the embryos were harvested and used for genomic DNA isolation use Plant DNA Isolation kit from Qiagen (Venlo, Netherlands). NGS (next generation sequencing) was conducted by Miseq platform of Illumina Inc. (San Diego, Calif., USA). InDel (insertion and deletion) rate was analyzed by means of CRISPResso (http://crispresso.rocks/).
# [3] = test system: sugar beet friable calluses; assay: Co-delivery of TSA with pLH-Pat5077399-70Subi-tDt by microprojectile bombardment, transient transformation; settings: 15 ng TSA, 300 μg gold particles, 24 hours after bombardment, vs no TSA
# Experimental: Sugar beet callus induction: young leaves from in vitro cultured sugar beet shoots in shoot culture medium (see below) were cut into small pieces (square, size 3-5 mm) in a laminar hood, and placed them onto callus induction medium (see below), in a density of 10-15 pieces per plate (diameter of 100 mm) with adaxial-side up. Wrap the plates with parafilm, and culture the leaf segments in plate at 23° C. in the dark for 6-8 weeks until callus emerged.
# Preparation of sugar beet callus for bombardment: harvest friable fresh calluses under a stereoscope, and transfer them onto the bombardment target area in a sugar beet osmatic medium (see below) (single layer, no overlapping). Wrap the plates with parafilm and incubated at 25° C. in dark for 4-20 hours before bombardment.
# Microprojectile bombardment and post-bombardment handlings were conducted using the same procedure descripted in Example 1, except for the amount of gold particles used for a bombardment was 300 μg.
# Sugar beet shoot culture medium: MS, 0.25 mg/L of BAP, 30 g/L of sucrose, 8 g/I plant agar, pH 6.0
# Sugar beet callus induction medium: MS, 2.0 mg/L of BAP, 15 g/L of sucrose, 8 g/I plant agar, pH 6.0
# Sugar beet callus osmatic medium: MS, 2.0 mg/L of BAP, 15 g/L of sucrose, 0.2 M Mannitol (36.4 g/L), 0.2 M sorbitol (36.4 g/L), 8 g/I plant agar, pH 6.0
# [4] = test system: corn Hi II immature embryos; assay: Co-delivery of TSA with tdTomato construct pLH-Pat5077399-70Subi-tDt by microprojectile bombardment, transient transformation
# Experimental: Procedure: Prepare corn immature embryo for bombardment: 8-10 days post pollination, maize ears (i.e. A188 or Hi II) with immature embryos size 0.8 to 1.8 mm were harvested. The ears were sterilized with 70% ethanol for 10-15 minutes. After a brief air-dry in a laminar hood, remove top ˜⅓ of the kernels from the ears with a shark scalpel, and pull the immature embryos out of the kernels carefully with a spatula. The fresh isolated embryos were placed onto the bombardment target area in an osmotic medium plate (see below) with scutellum-side up. Wrap the plates with parafilm and incubated them at 25° C. in dark for 4-20 hours before bombardment.
# The amounts of TSA used for a bombardment with 100 μg of gold particles (approximately, 4.0-5.0×10^7 0.6 micron gold particles) are in range of 0.01 ng to 500 ng, preferred 0.1 to 50 ng. Plasmid DNA and TSA co-coating onto gold particles for bombardment: For 10 shots, 1 mg of gold particle size 0.6 micron (μm) in 50% (v/v) glycerol (100 μg gold particles per shot) in a total volume of 100 microliter (μl) was pipetted into a clear low-retention microcentrifuge tube. Sonicate for 15 seconds to suspend the gold particles. While vortex at a low speed, add the following in order to each 100 μl of gold particles: • Up to 10 μl of DNA (1.0 μg total DNA, 100 ng per shot) • 100 μl of 2.5 M CaCl2) (pre-cold on ice) • 40 μl of 0.1 M cold spermidine
# Close the lid and vortex the tube for 2-30 minutes at 0-10° C., and spin down the DNA-coated gold particles. After washing in 500 μl of 100% ethanol for two times, the pellet was resuspended in 120 μl of 100% ethanol. […]
# Bombardment was conducted using a Bio-Rad PDS-1000/He particle gun. […] 16-48 hours after bombardment, transient transformation was examined using a fluorescence microscope for the tdTomato gene expression at excitation maximum 554 nm and emission maximum 581 nm. […]
# [5] = test system: corn Hi II type II calluses; assay: Co-delivery of TSA with tdTomato construct pGEP359 by microprojectile bombardment, transient transformation; settings: 15 ng TSA, 100 μg gold particles, 16 hours after bombardment, vs no TSA
# Experimental: Type II callus induction and selection: Hi II immature embryos size 0.8-1.8 mm were isolated as described in Example 1, and were placed onto type II callus induction medium (see below) immediately with scutellum-side up, in a density of 10-15 embryo per plate (diameter of 100 mm). Wrap the plates with parafilm, and culture the embryos in plate at 27° C. in the dark until type II callus emerged (˜2 weeks). Pick friable type II calluses under a stereoscope, and move them onto type II callus selection medium (see below). Repeat this process for 2-3 more times, and trash the embryos 4 weeks after induction. Select pre-embryo stage of type II callus under a stereoscope carefully based on: friability (highly friable), morphology (no embryo-like structure), color (fresh, white, semi-transparent). Select and subculture type II callus every 1-2 week in callus selection medium (see below) until the callus lines stabilized (about 3-5 rounds of selection). Stable type II callus lines were cultured in type II callus subculture medium (see below) every 1 to 2 weeks.
# Preparation of type II callus for bombardment: Select and transfer highly friable type II callus at pre-embryo stage onto the bombardment target region in an osmotic medium plate (see Example 1) (single layer, no overlapping). […]
# [6] = test system: corn Hi II immature embryos; assay: Co-delivery of 2,4-D with mNeonGreen construct pGEP362 by microprojectile bombardment, transient transformation; settings: 250 ng 2,4-D, 100 μg gold particles, 16 hours after bombardment, vs no 2,4-D
# Experimental: Embryo isolation and microprojectile bombardment and post-bombardment handlings were performed using the same procedure as described in Example 1.
# The amounts of 2,4-D used for a bombardment with 100 μg of gold particles (approximately, 4.0-5.0×10^7 0.6 μm gold particles) are in range of 1.0 ng to 1000 ng, preferred 10 ng to 500 ng. Plasmid DNA and 2,4-D co-coating onto gold particles for bombardment were conducted as described in Example 1. 2,4-D stock solution (e.g. 1 mg/ml) is prepared in 100% DMSO.
# [7] = test system: corn Hi II type II callus; assay: as above; settings: 125 ng, 250 ng, 500 ng 2,4-D vs 0 ng; 16 hours after bombardment
# Experimental: Type II callus culture and microprojectile bombardment and post-bombardment handlings were performed using the same procedure as described in Example 2.
# The amounts of 2,4-D used for a bombardment with 100 μg of gold particles (approximately, 4.0-5.0×10^7 0.6 μm gold particles) are in range of 1.0 ng to 1000 ng, preferred 10 ng to 500 ng. Plasmid DNA and 2,4-D co-coating onto gold particles for bombardment were conducted as described in Example 6.
# leaves of corn plants = assay: Co-delivery of 2,4-D with tdTomato construct pGEP359 by microprojectile bombardment, transient transformation; settings: 250 ng 2,4-D, 20 hours after bombardment, vs without 2,4-D
# Experimental: Corn plants have grown in greenhouse. In stage V8 microprojectile bombardment was conducted using a Bio-Rad PDS-1000/He particle gun. The bombardment conditions are: 27-28 mm/Hg vacuum, 450 or 650 psi rupture disc, 6 mm gap distance. 20 hours after bombardment, transient transformation was examined using a fluorescence microscope for the tdTomato gene expression at excitation maximum 554 nm and emission maximum 581 nm. Plasmid DNA and 2,4-D co-coating onto gold particles for bombardment were conducted as described in Example 1. 2,4-D stock solution (e.g. 25 mg/ml in DMSO).
# [8] = test system: corn Hi II type II calluses; assay: Co-delivery of 6-BA or zeatin with tdTomato construct pGEP359 by microprojectile bombardment, transient transformation; settings: 250 ng hormone, 100 μg gold particles, 16 hours after bombardment, vs no hormone
# Experimental: The amounts of 6-BA or zeatin used for a bombardment with 100 μg of gold particles (approximately, 4.0-5.0×10^7 0.6 μm gold particles) are in range of 1.0 ng to 10000 ng, preferred 10 ng to 1000 ng.
smiles,measurement,setting,value
"CC(/C=C/C(=O)NO)=C\[C@@H](C)C(=O)c1ccc(N(C)C)cc1 [TSA, trichostatin A]","increase of site-specific InDel rate, factor",[1],6.75
same,"increase of site-specific InDel rate, percent",[1],575%
same,effect of lower and higher TSA amounts on InDel rates,"[2]; 15 ng and 45 ng TSA compared to absence of TSA, 2 days",significant increase of InDel rates
same,TSA amount giving optimum of rates of InDel events,"[2]; no TSA, 15, 30, 45 ng TSA tested, 2 days after bombardment, pGEP284",around 30 ng
same,increase of average number of fluorescent cells per field,[3],193.7%
same,increase of average number of red fluorescent cells (positively transient transformed cells) per embryo,"[4]; 15 ng TSA, 100 μg gold particles 0.6 μm, 16 hours after bombardment, vs no TSA",98.2%
same,effect of lower and higher TSA amounts on transient transformed cells,"[4]; 15 ng and 45 ng TSA vs no TSA, 16 hours",significant increase of transient transformed cells
same,TSA amount giving optimum of average number of fluorescent cells per field,"[4]; no TSA, 15, 30, 45 ng TSA tested, 16 hours",around 30 ng
same,increase of average number of fluorescent cells per field,[5],43.3%
"O=C(O)COc1ccc(Cl)cc1Cl [2,4-D, 2,4-Dichlorophenoxyacetic acid]",increase in average number of green fluorescent cells per embryo,[6],187%
same,increase of average number of green fluorescent cells per field,[7],at least 34.8%
same,effect on transient transformation in corn leaves,leaves of corn plants,improved the transient transformation
"C/C(=C\CNc1ncnc2[nH]cnc12)CO [zeatin, Zeatin]",increase in average number of red fluorescent cells per field,[8],31.2%
"c1ccc(CNc2ncnc3nc[nH]c23)cc1 [6-BA, 6-Benzylaminopurine]",increase in average number of red fluorescent cells per field,[8],35.8%
